In one test the test system is human LDL. The test is described as follows: In vitro oxidation of human LDL (Cu-induced conjugated diene formation at 234 nm). Type of test: biochemical. The procedure:
In vitro oxidation of human LDL Human venous blood was collected on EDTA (2.68 mM final concentration). Plasma was isolated by centrifugation. NaBr (37.3 mg/ml) was added and solubulized (final density 1.036 g/ml). Centrifuge tubes were first filled to a level corresponding to 2/3 of their maximal volume, further filled with a NaBr solution of 1.036 g/ml and then centrifuged for 18 hours at 45000 rpm in a 50 Ti rotor (Beckmann). After centrifugation, floating lipoproteins were discarded. The remaining solution was adjusted to a density of 1.055 g/ml. Filling of the centrifuge tubes and centrifugation were repeated as described above. After centrifugation, floating LDL was dialysed against a buffer containing 127 mM NaCl, 8 mM Na2 HPO4.2H2 O, 2.7 mM KCl and 1.47 mM KH2 PO4 at pH 7.4. After dialysis, LDL was filtered though a Millipore filter (0.45 μM) and protein content was determined. A dilution of 25 μg/ml was prepared with a millipored dialysis buffer. Oxidation was determined in a Pharmacia Ultraspec III spectrophotometer. Conjugated diene formation was registered at 234 nm. Two μl of a drug or solvent (DMSO) were added to Eppendorf tubes followed by 1 ml of LDL (25 μg/ml) and these substances were gently mixed and centrifuged for 1 min at 13000 g. The solution was pipetted in a Quartz cuvet that was thermostatised in the spectrophotometer at 37° C. After equilibration, the oxidation reaction was started by the addition of CuSO4 (final concentration 10 μM). Absorbance was measured every 3 minutes during the time course of the experiment. The absorbance at 234 nm was divided into three phases: a lag phase, a propagation phase and a decomposition phase (FIG. 1). The lag phase was defined as the intercept with the baseline of the tangent of the slope of the absorbance curve of the propagation phase. The rate of oxidation was defined as the tangent of the slope. Tmax was defined as the time required to attain the maximum absorbance between the propagation and the decomposition phase. The absorbance at tmax minus the absorbance at to was taken as an indicator of the total amount of dienes formed. To verify the reproducibility of the assay, a reference LDL sample was prepared and kept in darkness under nitrogen at 4° C. This reference sample was included in every oxidation experiment. LDL was isolated from 23 subjects. Plasma cholesterol ranged from 156 to 278 mg/dl (mean 213 mg/dl), triglycerides ranged from 47 to 328 mg/dl (mean 191 mg/dl) and phospholipids ranged from 178 to 327 mg/dl (mean 231 mg/dl).

A further test deals with C6 glioma cells. The test is described as follows: Protection of C6 glioma cells from glutathione depletion-mediated oxidative stress (toxicity, LDH assay). Type of test: cell-based. The conditions noted are these: data not shown. The source says: Competitive inhibition by glutamate of cystine uptake in certain cells leads to glutathione depletion and oxidative stress. This oxidative stress model has been described for glial C6 glioma cells (Kato et al., 1992. A mechanism for glutamate toxicity in the C6 glioma cells involving inhibition of cystine uptake leading to glutathione depletion. Neurosci. 48:903-914) and for the neuronal cell line N18RE105 (Murphy et al., 1989. Glutamate toxicity in a neuronal cell line involves inhibition of cystine transport leading to oxidative stress. Neuron 2:1547-1558).
Cell culture: The C6 glioma cell line (American Type Culture Collection, CCL 107) was cultivated in DMEM supplemented with 2 or 4 mM glutamine, 1 mM pyruvate and 5 or 10% heat-inactivated foetal calf serum. Cultures were maintained at 37° C. in an air/5~10% CO2, water saturated atmosphere.
Glutathione depletion and evaluation of drugs as antioxidants: Experiments were carried out with cultures plated at 30,000~50,000 cells/cm^2 in 24-well culture plates (for toxicity and lipid peroxide measurements) or at 136,000 cells/cm^2 in 96-well culture plates (for GSH determination). After 8-24 hr, the cultures were switched to culture medium in the absence or presence of the cystine uptake inhibitor glutamate at a final concentration of 10 mM. In order to test drugs for inhibition of oxidative stress, the drug was added together with glutamate (final concentration of solvent was 0.01% hydroxypropyl-β-cylodextrin, 0.1% DMSO). Intracellular glutathione levels were measured after 6~8 hr, lipid peroxides were measured after 14~20 hr, and toxicity and protection were analysed after 48 hr using an LDH assay according to the method of Bergmeyer and Bernt (UV-assay with pyruvate and NADH. In: Methods of Enzymatic Analysis. 1974. H. U. Bergmeyer, ed. Acad. Press, New York, 2nd Ed., pp 574-579).

Test [1] relates to primary embryonic hippocampal cultures. The test is described as follows: In vitro neuroprotection against nitric oxide and superoxide radicals (inhibition of LDH release). Type of test: cell-based, rats. The conditions noted are these: for inhibition at 1 µM / inhibition at 0.1 µM: Rattus norvegicus, read-out: % neuroprotection, mean ± SD; for inhibition at 1 µM: 10^-6 M; for inhibition at 0.1 µM: 10^-7 M. The procedure: Primary embryonic hippocampal cultures were prepared essentially as described previously (Pauwels et al., Van Aschouw, H. P., Peeters, L., Moeremans, M., Leysen, J. E. (1992) Chronic treatment with sabeluzole protects cultured rat brain neurons from the neurotoxic effects of excitatory amino acids. Synapse, 12:271-280). Hippocampal formations of rats at embryonic day 17 were dissected and dissociated in 0.05% trypsin, 0.1 mg/ml DNase I in DMEM (Dulbecco Modified Eagle Medium). Heat-inactivated horse serum (HS) was added to a concentration of 4%, and the cells were centrifuged, washed with DMEM, and resuspended in DMEM/Ham's F12 (3:1) containing 10% HS. The cells were plated at a density of 4×10^5 cells/cm^2 in poly L-lysine (0.001%) precoated multiwell-24 plates. On day 1 in culture, the medium was changed to chemically defined CDM-R12 medium (DMEM-HEPES/Ham's F12 (3:1) containing 0.26% bovine serum albumin, 30 nM sodium selenite, 3 nM 3,3',5 triiodo-L-thyronine, 0.35 μM retinol, 0.3 μM retinol acetate, 2.3 μM DL-a-tocopherol, 2.1 μM DL-a-tocopherol acetate, 3.6 μM linolenic acid, 3.6 μM linoleic acid, 0.125% human transferrin, […], 57.7 nM corticosterone, 49 U/I insulin, 0.4 μM biotin, 10 μM L-carnitine, 83 μM D(+)-galactose, 3.3 μM glutathione, 10 μM ethanolamine, 0.1 mM putrescine; Romijn, H. J., van Huizen, F., Wolters, P. S. (1984) Towards an improved serum-free, chemically defined medium for long-term culturing of cerebral cortex tissue. Neurosci. Behav. Rev., 8:301-334). Acute and prolonged pretreatment of the, cultures was essentially as described previously (Pauwels et al., 1992). Drugs were dissolved, and diluted in 10% or 1% hydroxypropyl-β-cyclodextrin such that the final concentrations of the solvent in the acute and chronic exposures were 0.1% and 0.01% respectively. Compound A as used in the following examples is [(RRSR)+(RRRS)+(SSSR) +(SSRS)]-α-[[[2-(chroman-2-yl)-2-hydroxy-ethyl]amino]methyl]-6-hydroxy-2-chromanmethanol ethanedioate (1:1).
For acute treatment, drug, or solvent was added to the cultures on day 7. After 20 min the medium was replaced with 200 μl chemically defined DMEM medium (the same composition of CDM-R12 medium but without Ham's F12) (control), or chemically defined DMEM medium containing the oxidative stress trigger. Oxidative stress triggers used were 1 mM sodium nitroprusside (SNP, a nitric oxide radical generating compound), or 7.5-10 mM diethyldithiocarbamate (DDTC, a superoxide dismutase inhibitor) and the test compound.
For prolonged pretreatment experiments, drug (concentration range 0.1 nM-10 μM) was added to the serum-free medium on days 1 and 4 of the culture. On day 7, the cultures were washed once with DMEM, and incubated with 0.2 ml chemically defined DMEM medium for 2 h at 37° C. The cells were washed and the medium was replaced by 0.2 ml chemically defined DMEM medium (control), or chemically defined DMEM medium containing the oxidative stress trigger (se above).
For both the acute experiment and the prolonged pretreatment experiment, extracellular and intracellular LDH (lactate dehydrogenase) activities were measured spectrophotometrically at 340 nm with an EPOS Analyzer 5060, according to the method of Bergmeyer (Bergmeyer, H. U. (1974) Biochemical reagents. In: Methods of Enzymatic Analysis. H. U. Bergmeyer, eds. Academic Press, New York, 2nd Ed., pp. […]). Extracellular LDH activity in the culture medium and cytoplasmic LDH activity measured after lysis of the cells in 1 ml H2 O, were used to calculate total LDH activity and % released LDH. % Neuroprotection refers to % inhibition of LDH release, where oxidative stress trigger-induced LDH release is defined as 0% protection, and basal (control) level of LDH release is defined as 100% protection.
Neuronal primary hippocampal cultures were grown in CDM-R12 medium for 7 days. Test compounds were either administered on days 1 and 4 of culture (prolonged pretreatment) or on day 7 of culture (acute treament). […]

The mark [2] stands for this setting: DDTC trigger, prolonged pretreatment.
Setting [3] is: SNP trigger, prolonged pretreatment.

Read-outs that look alike come from different tables or passages of the source.

As for `Cc1c(C)c2c(c(C)c1O)CCC(C)(CCCC(C)CCCC(C)CCCC(C)C)O2` (stereo not drawn) [vitamin E, α-tocopherol, reference compound], in the test with human LDL (20 μM vitamin E, compared with 2 μM hydroxymetabolites of nebivolol), the Tmax entry is on record as “close to the tmax for the 2 μM hydroxymetabolites of nebivolol”. The anti-oxidant effect entry with human LDL (concentration lower than 10 μM (results not shown)) is given as “did not show any anti-oxidant effect”. Besides, the “antioxidative effect on human LDL” value in the test on human LDL (in vitro) is recorded as “delay the oxidation of LDL”. In the test with human LDL (vitamin E), the initial absorbance entry is recorded as “not affected”, the rate of oxidation entry was “not affected” and the total amount dienes entry was “not affected”.

For the compound `Oc1ccc2c(c1)CCC(C(O)CNCC(O)C1CCc3cc(O)ccc3O1)O2` (stereo not drawn) [[(SRSR)+(SRRS)+(RSSR)] -α,α'-iminobis(methylene)bis[6-hydroxy-2-chromanmethanol]], in the test with human LDL (2 μM, FIG. 2), the Tmax result is “increased”, the lag time result is “increased” and the rate of oxidation result is “decreased”.

For `Oc1ccc2c(c1)CCC(C(O)CNCC(O)C1CCc3ccccc3O1)O2` (stereo not drawn) [[(RSSS)+(RSRR)+(SRSS)+(SRRR)]-α-[[[2-(chroman-2-yl)-2-hydroxyethyl]amino]-methyl]-6-hydroxy-2-chroman-methanol ethanedioate (1:1)], in the test with human LDL (2 μM, FIG. 2), the Tmax result is recorded as “increased”, the lag time entry is “increased” and the rate of oxidation result is listed as “decreased”.

For `C[C@]12N[C@H](Cc3ccccc31)c1ccccc12` [MK801, reference compound], the “cytoplasmic LDH release (glutamate toxicity)” value with C6 glioma cells is reported as “not prevented”.

`COc1ccccc1OCCNCC(O)COc1cccc2[nH]c3ccccc3c12` (stereo not shown) [carvedilol, reference compound]: the inhibition at 1 µM in test [1] (DDTC trigger, acute treatment) was less than 25%; in test [1] (setting [2]), less than 25%; in test [1] (SNP trigger, acute treatment), less than 25%; in test [1] (setting [3]), less than 25%. In addition, the inhibition at 0.1 µM in test [1] (DDTC trigger, acute treatment) was less than 25%; in test [1] (setting [2]), less than 25%; in test [1] (SNP trigger, acute treatment), less than 25%; in test [1] (setting [3]), less than 25%. Besides, the “neuroprotection against DDTC or SNP” value in test [1] (one or the other treatment paradigm) was “not observed”.

Values taken from US5874461A, “Use of Nebivolol as an anti-atherogenic” (priority 1995, dated 1999).
